# Laboratory results published in ChEMBL document CHEMBL1201862, “PubChem BioAssay data set” (2004).
# Several values for one entry are separate records, joined by “and”; a condition that tells them apart may be missing. Equal entries are not always repeated. Activity calls are given as the source filed them.
# Assays:
# [1] = tested on: CHO-K1; assay: (§1) Counterscreen for antagonists of the orexin 1 receptor (OX1R; HCRTR1): Homogeneous time resolved fluorescence (HTRF)-based cell-based dose response assay to identify antagonists of the parental CHO-K1 cell line. [Related pubchem assays (depositor defined):AID434989, AID435008, AID463079, AID485270, AID492963, AID492964, AID492965, AID493232, AID504699, AID504701]; type: functional; conditions: Cricetulus griseus
# [2] = biological target: T1, Orexin receptor type 2 (Homo sapiens, UniProt O43614); assay: Counterscreen assay for antagonists of the orexin 1 receptor (OX1R; HCRTR1): Homogeneous Time Resolved Fluorescence (HTRF)-based cell-based dose response assay for antagonists of the orexin 2 receptor (OX2R; HCRTR2), run by assay provider.; type: functional
# T1 sequence (O43614 whole entry): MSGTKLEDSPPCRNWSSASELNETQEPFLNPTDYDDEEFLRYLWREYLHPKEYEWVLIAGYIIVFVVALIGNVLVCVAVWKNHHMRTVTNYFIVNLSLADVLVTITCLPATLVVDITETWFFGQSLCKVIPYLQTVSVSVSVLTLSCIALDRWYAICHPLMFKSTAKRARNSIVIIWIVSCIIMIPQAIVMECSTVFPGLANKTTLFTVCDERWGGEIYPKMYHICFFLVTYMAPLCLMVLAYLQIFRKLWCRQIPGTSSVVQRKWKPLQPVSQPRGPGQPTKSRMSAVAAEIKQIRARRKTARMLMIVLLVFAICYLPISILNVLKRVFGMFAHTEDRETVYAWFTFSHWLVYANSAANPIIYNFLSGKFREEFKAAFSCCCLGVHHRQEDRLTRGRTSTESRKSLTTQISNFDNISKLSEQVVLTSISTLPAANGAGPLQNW
# [3] = biological target: T2, Orexin/Hypocretin receptor type 1 (Homo sapiens, UniProt O43613); assay: (§2) Fluorescence-based cell-based high throughput dose response assay for antagonists of the orexin 1 receptor (OX1R; HCRTR1). [Related pubchem assays (depositor defined):AID434989, AID435008, AID463079, AID485270, AID492963, AID492964, AID492965, AID493232, AID504717, AID504718]; type: functional
# T2 sequence (O43613 whole entry): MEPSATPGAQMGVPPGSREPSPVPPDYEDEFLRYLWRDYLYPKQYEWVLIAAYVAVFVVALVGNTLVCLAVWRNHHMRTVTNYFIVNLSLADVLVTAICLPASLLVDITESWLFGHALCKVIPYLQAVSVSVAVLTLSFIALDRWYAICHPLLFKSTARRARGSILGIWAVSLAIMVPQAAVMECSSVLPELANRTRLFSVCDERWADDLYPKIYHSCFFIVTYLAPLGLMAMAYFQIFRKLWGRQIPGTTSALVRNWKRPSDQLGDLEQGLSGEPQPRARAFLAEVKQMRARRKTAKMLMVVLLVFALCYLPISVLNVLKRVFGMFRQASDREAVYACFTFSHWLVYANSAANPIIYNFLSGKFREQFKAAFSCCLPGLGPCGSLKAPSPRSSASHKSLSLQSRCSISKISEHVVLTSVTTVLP
# [4] = biological target: T2, Orexin/Hypocretin receptor type 1; assay: as §2, with “Homogeneous Time Resolved Fluorescence (HTRF)-based” for “Fluorescence-based”; type: functional
# [5] = biological target: T1, Orexin receptor type 2; assay: Counterscreen assay for antagonists of the orexin 1 receptor (OX1R; HCRTR1): Fluorescence-based cell-based dose response assay for antagonists of the orexin 2 receptor (OX2R; HCRTR2), run by assay provider.; type: functional
# [6] = as §1, with “Fluorescence-based” for “Homogeneous time resolved fluorescence (HTRF)-based”, “cell-based high throughput” for “cell-based”, “CHO” for “CHO-K1”; type: functional
# [7] = Vero E6 cell cytotoxicity, dose response, cytotoxicity control for non-replicating M. tuberculosis project, secondary assay (AID 492998); type: functional, VeroE6; conditions: Vero C1008
# [8] = biological target: T3, Streptokinase A (Streptococcus pyogenes serotype M1, UniProt P10520); assay: viability-normalized secreted streptokinase activity reduction – plasminogen activation absorbance, OD405, dose response (AID 1914); type: functional, Streptococcus pyogenes M1 GAS;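 note: secreted streptokinase activity via plasminogen activation per viability signal from cell pellet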
# T3 sequence (P10520 whole entry): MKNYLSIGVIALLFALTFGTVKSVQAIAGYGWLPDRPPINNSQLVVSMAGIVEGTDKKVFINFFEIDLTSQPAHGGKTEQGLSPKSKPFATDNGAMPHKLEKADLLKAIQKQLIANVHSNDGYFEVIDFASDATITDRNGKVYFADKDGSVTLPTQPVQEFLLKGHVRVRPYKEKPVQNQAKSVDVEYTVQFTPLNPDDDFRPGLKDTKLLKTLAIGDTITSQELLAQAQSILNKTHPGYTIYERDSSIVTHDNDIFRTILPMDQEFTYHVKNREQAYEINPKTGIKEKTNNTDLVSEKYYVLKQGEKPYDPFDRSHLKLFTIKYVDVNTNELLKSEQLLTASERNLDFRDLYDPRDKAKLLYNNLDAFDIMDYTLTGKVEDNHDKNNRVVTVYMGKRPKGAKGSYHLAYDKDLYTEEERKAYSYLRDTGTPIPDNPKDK
# [9] = tested on: Streptococcus; assay: GAS UMAA2166 growth inhibition – luminescence, BacTiterGlo, counter-screen for streptokinase expression inhibitor project, dose response (AID 1915); type: functional, organism-based;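 note: potency for reduction of bacterial viability or growth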
# [10] = microbe, parasite or virus in culture; type: functional; conditions: Mycobacterium tuberculosis
# [11] = A Cell Based Secondary Assay to Explore Cytotoxicity in THP-1 Cells of Compounds that Modulate Mycobacterium tuberculosis in Media Containing Glycerol versus Media without Glycerol (2).; type: functional
# [12] = tested on: Streptococcus sp. 'group A'; assay: Streptococcus pyogenes SK(-)GAS viability under kanamycin – luminescence, BacTiterGlo, confirmation, counter-screen for streptokinase expression inhibitor project, dose response (AID 1900); type: functional, organism-based
# [13] = THP-1 cell cytotoxicity, dose response, cytotoxicity control for non-replicating M. tuberculosis project (AID 489025); type: functional
# [14] = A Cell Based Secondary Assay to Explore Cytotoxicity in HepG2 Cells of Compounds that Modulate Mycobacterium tuberculosis in Media Containing Glycerol versus Media without Glycerol (2).; type: functional
# [15] = cells; type: functional
# [16] = biological target: Beta-galactosidase (Escherichia coli, UniProt Q8VNN2); assay: detection-enzyme interference by beta-gal modulators – biochemical, E. coli enzyme, set 3, artefact control for CCR6 antagonist project, dose response (AID 504712); type: functional
# Beta-galactosidase, sequence (Q8VNN2 whole entry): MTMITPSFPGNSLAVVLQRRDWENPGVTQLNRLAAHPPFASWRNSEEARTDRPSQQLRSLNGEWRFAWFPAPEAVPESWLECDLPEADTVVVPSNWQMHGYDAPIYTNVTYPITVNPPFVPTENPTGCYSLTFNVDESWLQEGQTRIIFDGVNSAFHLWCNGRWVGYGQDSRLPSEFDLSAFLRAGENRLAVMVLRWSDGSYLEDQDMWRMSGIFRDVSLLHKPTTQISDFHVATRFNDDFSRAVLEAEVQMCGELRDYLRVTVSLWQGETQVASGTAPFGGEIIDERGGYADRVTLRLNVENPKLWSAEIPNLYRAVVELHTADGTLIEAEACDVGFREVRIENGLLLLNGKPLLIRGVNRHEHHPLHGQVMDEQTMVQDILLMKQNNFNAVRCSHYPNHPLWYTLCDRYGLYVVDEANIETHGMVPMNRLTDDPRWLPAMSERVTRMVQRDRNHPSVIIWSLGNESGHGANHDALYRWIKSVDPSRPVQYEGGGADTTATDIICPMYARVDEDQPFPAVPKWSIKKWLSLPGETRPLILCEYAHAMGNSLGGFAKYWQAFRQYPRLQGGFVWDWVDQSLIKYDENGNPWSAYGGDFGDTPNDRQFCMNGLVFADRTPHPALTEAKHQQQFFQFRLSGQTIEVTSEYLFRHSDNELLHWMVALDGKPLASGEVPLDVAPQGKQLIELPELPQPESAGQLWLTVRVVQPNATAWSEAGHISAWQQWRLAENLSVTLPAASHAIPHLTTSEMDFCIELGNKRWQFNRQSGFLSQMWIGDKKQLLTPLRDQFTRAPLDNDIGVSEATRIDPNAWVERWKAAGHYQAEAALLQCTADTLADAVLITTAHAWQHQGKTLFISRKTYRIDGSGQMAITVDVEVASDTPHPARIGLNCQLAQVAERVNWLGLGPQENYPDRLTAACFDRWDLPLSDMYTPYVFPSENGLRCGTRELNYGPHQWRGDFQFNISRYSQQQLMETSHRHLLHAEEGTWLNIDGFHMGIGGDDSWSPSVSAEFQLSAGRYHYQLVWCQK
# [17] = Vero cell cytotoxicity, cytotoxicity control for M. tuberculosis inhibitor project, purified and synthesized samples, set 3 (AID 504684); type: functional
# [18] = biological target: C-C chemokine receptor type 6 (Homo sapiens, UniProt P51684); assay: antagonism of CCR6 beta-arrestin recruitment – cell-based, luminescent beta-arrestin readout, dose response (AID 504728); type: functional
# C-C chemokine receptor type 6, sequence (P51684 whole entry): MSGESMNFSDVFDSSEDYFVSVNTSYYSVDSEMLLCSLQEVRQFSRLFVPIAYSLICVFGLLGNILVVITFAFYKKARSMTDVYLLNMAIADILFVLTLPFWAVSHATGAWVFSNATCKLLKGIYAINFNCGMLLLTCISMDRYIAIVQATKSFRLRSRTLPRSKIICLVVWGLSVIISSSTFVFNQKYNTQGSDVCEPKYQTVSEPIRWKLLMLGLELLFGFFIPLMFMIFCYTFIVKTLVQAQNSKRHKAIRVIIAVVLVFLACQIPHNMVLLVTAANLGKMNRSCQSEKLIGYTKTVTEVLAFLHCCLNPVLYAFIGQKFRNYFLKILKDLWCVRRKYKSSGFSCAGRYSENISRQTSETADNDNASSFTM
# [19] = HepG2 cell cytotoxicity, dose response, cytotoxicity control for non-replicating M. tuberculosis project (AID 489018); type: functional; conditions: Mycobacterium tuberculosis
# [20] = biological target: Botulinum neurotoxin type A (Clostridium botulinum (strain Hall / ATCC 3502 / NCTC 13319 / Type A), UniProt P0DPI1); assay: High-throughput multiplex microsphere dose response for inhibitors of toxin protease, specifically Botulinum neurotoxin light chain A protease, compounds from Cherry Pick 01.; type: functional; conditions: read-out: EC50_MICROM
# Botulinum neurotoxin type A, sequence (P0DPI1 2-448 limits assumed): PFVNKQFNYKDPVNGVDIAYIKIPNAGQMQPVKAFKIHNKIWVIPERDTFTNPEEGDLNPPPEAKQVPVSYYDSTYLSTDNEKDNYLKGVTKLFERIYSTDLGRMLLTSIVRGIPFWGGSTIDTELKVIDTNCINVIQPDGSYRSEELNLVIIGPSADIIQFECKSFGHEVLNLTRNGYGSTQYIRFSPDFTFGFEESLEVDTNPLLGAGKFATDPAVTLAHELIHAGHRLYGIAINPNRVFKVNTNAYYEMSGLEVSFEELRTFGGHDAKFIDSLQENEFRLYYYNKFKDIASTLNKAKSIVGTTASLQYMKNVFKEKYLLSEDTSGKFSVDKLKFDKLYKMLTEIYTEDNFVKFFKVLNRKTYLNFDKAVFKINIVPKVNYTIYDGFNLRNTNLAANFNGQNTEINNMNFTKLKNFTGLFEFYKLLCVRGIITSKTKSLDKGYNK
# [21] = biological target: T4, Heat shock factor protein 1 (Mus musculus, UniProt P38532); assay: enhancement of HSF1-driven luciferase signal – cell-based, NIH3T3, luminescence, dose retest, confirmation (AID 435004); type: functional;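 note: stress induced by proteasome inhibitor MG132 added 30 min after compound; luciferase reporter driven by HSF1 response element in NIH3T3 cells; actives raise luminescence as potentiators of the MG132 stress response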
# T4 sequence (P38532 whole entry): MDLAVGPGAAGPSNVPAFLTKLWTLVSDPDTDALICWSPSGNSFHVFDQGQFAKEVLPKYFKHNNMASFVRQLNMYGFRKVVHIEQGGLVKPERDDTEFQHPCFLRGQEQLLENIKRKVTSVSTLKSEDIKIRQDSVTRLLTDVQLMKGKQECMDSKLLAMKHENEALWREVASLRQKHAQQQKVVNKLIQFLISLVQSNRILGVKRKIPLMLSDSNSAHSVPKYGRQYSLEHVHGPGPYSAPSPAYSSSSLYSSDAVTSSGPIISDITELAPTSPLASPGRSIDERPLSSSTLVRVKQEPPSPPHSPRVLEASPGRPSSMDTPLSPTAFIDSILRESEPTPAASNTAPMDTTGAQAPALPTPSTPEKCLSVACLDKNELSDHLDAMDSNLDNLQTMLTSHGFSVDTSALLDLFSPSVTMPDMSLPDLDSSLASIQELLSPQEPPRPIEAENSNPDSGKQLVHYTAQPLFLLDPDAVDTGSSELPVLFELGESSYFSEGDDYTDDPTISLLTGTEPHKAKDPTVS
# [22] = biological target: Phospholipase D1 (Homo sapiens, UniProt Q13393); assay: cellular phospholipase D1 inhibition IC50 – cell-based, dose response (AID 602151); type: functional;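 note: cellular PLD1 assay in Calu-1 cells stimulated with PMA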
# Phospholipase D1, sequence (Q13393 whole entry): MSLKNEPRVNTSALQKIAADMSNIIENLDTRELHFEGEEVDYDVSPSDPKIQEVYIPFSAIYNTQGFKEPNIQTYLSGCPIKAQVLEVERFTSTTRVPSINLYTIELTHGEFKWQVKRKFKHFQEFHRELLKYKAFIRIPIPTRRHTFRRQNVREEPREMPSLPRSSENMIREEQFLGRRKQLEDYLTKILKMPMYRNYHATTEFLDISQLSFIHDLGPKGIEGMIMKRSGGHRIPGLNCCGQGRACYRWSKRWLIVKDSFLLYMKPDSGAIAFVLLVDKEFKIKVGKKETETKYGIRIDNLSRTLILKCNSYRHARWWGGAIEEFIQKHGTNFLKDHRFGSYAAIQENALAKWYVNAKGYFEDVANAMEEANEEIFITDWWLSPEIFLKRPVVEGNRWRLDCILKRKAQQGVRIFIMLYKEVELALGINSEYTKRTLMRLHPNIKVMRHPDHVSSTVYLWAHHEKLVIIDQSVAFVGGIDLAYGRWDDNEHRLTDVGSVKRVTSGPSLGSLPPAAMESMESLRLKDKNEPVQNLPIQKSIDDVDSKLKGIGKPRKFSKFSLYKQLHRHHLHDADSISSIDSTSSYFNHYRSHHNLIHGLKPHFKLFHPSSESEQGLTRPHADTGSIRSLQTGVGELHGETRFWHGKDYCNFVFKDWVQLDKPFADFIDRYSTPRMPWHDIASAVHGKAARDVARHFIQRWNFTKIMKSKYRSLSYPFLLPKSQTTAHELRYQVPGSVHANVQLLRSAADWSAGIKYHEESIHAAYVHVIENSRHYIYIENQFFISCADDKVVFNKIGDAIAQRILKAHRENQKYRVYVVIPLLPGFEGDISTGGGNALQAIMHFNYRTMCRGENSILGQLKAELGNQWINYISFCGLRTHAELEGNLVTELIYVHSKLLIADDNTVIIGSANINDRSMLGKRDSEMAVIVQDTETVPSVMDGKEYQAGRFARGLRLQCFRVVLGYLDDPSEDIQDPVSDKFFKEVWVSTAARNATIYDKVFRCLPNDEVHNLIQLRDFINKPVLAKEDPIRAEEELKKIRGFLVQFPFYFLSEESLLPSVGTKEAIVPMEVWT
# [23] = biological target: Phospholipase D2 (Homo sapiens, UniProt O14939); assay: cellular phospholipase D2 inhibition IC50 – cell-based, dose response (AID 602147); type: functional;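 note: cellular assay in HEK293 cells overexpressing GFP-tagged PLD2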
# Phospholipase D2, sequence (O14939 whole entry): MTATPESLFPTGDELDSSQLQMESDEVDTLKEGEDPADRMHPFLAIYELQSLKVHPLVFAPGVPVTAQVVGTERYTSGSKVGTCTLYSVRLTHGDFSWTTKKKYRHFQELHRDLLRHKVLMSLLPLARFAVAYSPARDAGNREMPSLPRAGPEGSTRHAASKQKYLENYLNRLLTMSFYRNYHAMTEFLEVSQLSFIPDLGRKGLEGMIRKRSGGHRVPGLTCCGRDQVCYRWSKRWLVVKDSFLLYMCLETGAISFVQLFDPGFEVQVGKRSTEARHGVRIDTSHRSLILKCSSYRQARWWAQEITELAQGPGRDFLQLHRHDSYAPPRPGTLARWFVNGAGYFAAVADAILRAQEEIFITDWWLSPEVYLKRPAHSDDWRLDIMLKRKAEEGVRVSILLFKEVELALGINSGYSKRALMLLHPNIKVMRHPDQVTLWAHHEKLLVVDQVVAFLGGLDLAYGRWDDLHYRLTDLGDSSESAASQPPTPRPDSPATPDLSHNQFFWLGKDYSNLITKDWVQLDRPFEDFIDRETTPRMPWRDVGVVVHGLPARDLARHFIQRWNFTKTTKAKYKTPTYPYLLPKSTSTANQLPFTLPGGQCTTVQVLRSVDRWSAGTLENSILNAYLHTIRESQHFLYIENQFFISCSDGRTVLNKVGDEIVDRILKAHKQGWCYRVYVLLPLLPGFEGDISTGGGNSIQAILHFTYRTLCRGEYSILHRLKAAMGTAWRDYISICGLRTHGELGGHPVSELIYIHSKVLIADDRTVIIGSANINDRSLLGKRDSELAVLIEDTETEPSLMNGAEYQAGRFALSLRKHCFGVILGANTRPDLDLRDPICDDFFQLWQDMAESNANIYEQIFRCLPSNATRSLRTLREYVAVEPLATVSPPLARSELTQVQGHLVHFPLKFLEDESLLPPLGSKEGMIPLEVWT
structure (smiles),measurement,setting,value
N#CCSc1nc(-c2ccccc2)nc2ccccc12,IC50,[1],> 66.3 µM (inactive)
same,IC50,[2],> 50 µM (inactive)
same,IC50,[3],> 49.8 µM (inactive)
same,IC50,[4],2.84 µM (active)
same,IC50,[5],> 88.8 µM (inactive)
same,IC50,[6],> 49.8 µM (inactive)
Cc1nn2c(NCc3ccccn3)cc(C(C)C)nc2c1-c1ccccc1,CC50,[7],15.8 µM (active)
same,EC50,[8],6.95 µM (active)
same,EC50,[9],23.2 µM (active)
same,CC50,[10],24.5 µM (active)
same,CC50,[11],4.39 µM (active)
same,EC50,[12],5.57 µM (active)
same,CC50,[13],9.09 µM (active)
same,CC50,[14],0.46 µM (active)
same,IC50,[15],1.51 µM (active)
same,IC50,[16],> 66.6 µM (inactive)
same,CC50,[17],11.1 µM (active)
same,IC50,[18],> 66.6 µM (inactive)
same,CC50,[19],6.6 µM (active)
COc1ccc(C2CC(c3cccs3)=NN2c2nc(C)c(C(C)=O)s2)cc1OC (stereo not drawn),EC50,[20],7.9 µM (active) and 4.8 µM (active)
same,EC50,[21],111 µM (active)
C[C@@H](CN1CCC(n2c(=O)[nH]c3ccccc32)CC1)NC(=O)c1ccc2ncccc2c1,IC50,[22],0.017 µM (active)
same,IC50,[23],4.1 µM (active)
